Test results from US8741812B2, “Class of sterol ligands and their uses in regulation of cholesterol and gene expression” (New York University, priority 2004, dated 2014).
Where two headings read alike, the source gives them in different places.

Experiments:
HMG CoA reductase = target: T1, HMG CoA reductase (Homo sapiens, UniProt P04035); test: Ubiquitination of reductase in a permeabilized cell system; assay type: cell-based; details: permeabilized cells; data not shown
T1 sequence (P04035 1-888): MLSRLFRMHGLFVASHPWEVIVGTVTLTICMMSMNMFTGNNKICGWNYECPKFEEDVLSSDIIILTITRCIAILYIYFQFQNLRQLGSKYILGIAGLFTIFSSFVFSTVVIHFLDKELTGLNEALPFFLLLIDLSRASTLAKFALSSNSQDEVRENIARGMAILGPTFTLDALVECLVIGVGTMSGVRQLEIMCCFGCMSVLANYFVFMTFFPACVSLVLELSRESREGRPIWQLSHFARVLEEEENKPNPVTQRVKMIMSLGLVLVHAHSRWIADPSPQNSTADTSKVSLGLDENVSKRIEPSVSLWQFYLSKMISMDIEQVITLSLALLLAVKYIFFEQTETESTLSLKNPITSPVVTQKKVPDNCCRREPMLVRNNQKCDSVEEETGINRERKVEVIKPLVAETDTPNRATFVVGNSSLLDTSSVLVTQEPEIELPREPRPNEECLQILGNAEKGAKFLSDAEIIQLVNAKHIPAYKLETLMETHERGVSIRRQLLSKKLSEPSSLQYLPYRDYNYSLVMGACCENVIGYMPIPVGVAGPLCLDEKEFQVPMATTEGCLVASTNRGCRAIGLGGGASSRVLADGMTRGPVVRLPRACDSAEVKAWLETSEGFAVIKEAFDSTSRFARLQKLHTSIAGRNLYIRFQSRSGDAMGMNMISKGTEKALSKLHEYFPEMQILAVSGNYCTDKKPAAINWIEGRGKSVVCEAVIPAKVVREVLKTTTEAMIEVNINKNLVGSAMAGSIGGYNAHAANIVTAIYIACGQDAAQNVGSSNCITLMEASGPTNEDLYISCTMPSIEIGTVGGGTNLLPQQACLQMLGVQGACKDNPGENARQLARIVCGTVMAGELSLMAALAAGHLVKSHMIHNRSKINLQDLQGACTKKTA
Experimental: It was determined whether intermediates in cholesterol synthesis promote ubiquitination of reductase in a permeabilized cell system. […] The methyl and side chain hydroxyl groups of 27-hydroxylanosterol appear to act synergistically in promoting reductase ubiquitination.

LXRα = target: T2, LXRα (Homo sapiens, UniProt Q13133); details: cited from earlier work
T2 sequence (Q13133 1-447): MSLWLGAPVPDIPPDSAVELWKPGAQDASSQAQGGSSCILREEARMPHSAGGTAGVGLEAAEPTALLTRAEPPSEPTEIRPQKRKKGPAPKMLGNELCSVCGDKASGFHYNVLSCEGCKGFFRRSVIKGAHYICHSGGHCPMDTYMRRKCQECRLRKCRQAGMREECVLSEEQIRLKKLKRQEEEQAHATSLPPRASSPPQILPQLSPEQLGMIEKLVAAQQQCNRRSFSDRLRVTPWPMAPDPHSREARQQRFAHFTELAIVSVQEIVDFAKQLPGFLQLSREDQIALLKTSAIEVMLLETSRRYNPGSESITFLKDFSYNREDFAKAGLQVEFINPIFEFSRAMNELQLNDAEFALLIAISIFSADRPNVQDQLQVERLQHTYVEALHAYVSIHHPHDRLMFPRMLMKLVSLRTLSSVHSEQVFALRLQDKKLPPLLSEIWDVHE

[1] = target: T3, Recombinant human P450 27A1 (Homo sapiens, UniProt Q02318); test: P450 27A1 enzyme incubation: rate of 27-diol formation (GLC-MS); assay type: biochemical; details: for Substrate for the enzyme CYP 27A1: human enzyme expressed in E. Coli; for Synthesis rate of the 27-diol metabolite: 25 nmol substrate, 37° C.; for Total 27-diol metabolite: total over 10 min
T3 construct: made in house; host or cells: E. coli
Source text: (§1) Recombinant human P450 27A1, recombinant bovine adrenodoxin (Adx), and recombinant bovine adrenodoxin reductase (Adr) were expressed and purified as described previously (7). P450 27A1 with a heme content of 17.6 nmol/mg protein and showing a single band upon silver-stained SDS-polyacrylamide gel electrophoresis, and Adr and Adx with the spectral purity indexes of 7.5 (A278/A450) and 0.95 (A414/A276), respectively, were used for enzymatic assays. Adr and Adx are considered to be pure with the spectral purity indexes beginning from 7.5 for Adr and 0.86 for Adx (8).
(§2) P450 27A1 activities using cholesterol, desmosterol, zymosterol, lanosterol, or […] as the substrate were assayed in 40 mM phosphate buffer, pH 7.4. Stock solutions (10 mM) of cholesterol, desmosterol, zymosterol, and […] were prepared using 45% aqueous solution of 2-hydroxypropyl-β-cyclodextrin. Reaction mixtures (1 ml) contained 0.065 nmol of P450 27A1, 0.33 nmol of Adr, 1.3 nmol of Adx, and 25 nmol of substrate, Lanosterol was dissolved in methyl-β-cyclodextrin (Sigma, St. Louis, Mo.) and the reaction mixture contained 25 nmol substrate, 0.3 nmol enzyme, 1.5 nmol Adr and 6.5 nmol Adx. Enzymatic assays, initiated by addition of 1 μmol of NADPH, were carried out at 37° C. for different time intervals, and were terminated by adding 1 ml of either CH2Cl2 or CH2Cl2 that contained coprostanol. After extraction, the steroid were taken to dryness. In some studies deuterated 27-hydroxycholesterol (9) was used as an internal standard.
(§3) For zymosterol and desmosterol, the rate of diol formation was determined at 2.5, 5.0, and 10 min by removing aliquots and adding deuterated 27-hydroxycholesterol as an internal standard. The m/z 454 area was then compared with the m/z=462 area at each time interval. Because authentic standards are not available for constructing standard curves, it was assumed that the area/mass ratios for deuterated 27-hydroxycholesterol, zymosterol and desmosterol were equal. A second approach was to quantify the rate of disappearance of substrate using coprostanol added at the end of the incubation period. In all studies a parallel incubation with the omission of adrenodoxin reductase served as a control.
(§4) The trimethylsilyl ethers were prepared using MSTFA, (Pierce, Rockford, Ill.). Methyl esters were prepared using freshly distilled diazomethane. GLC-MS analyses were done on a Shimidzu GLC 17A instrument attached to a Model 5000 mass detector. Samples were injected in the split-mode onto a ZB-1701, 30 m×0.25 mm×0.15 μm capillary column (Phenomenex, Torrance, Calif.) and temperature programming at 1° C. beginning at 240° C.

[2] = target: T3, Recombinant human P450 27A1; test: P450 27A1 enzyme incubation: disappearance of substrate, coprostanol internal standard; assay type: biochemical
Source text: as §1, §2, §3, §4
TABLE 3 indicates the percent of zymosterol, desmosterol, and lanosterol that was metabolized compared with that of cholesterol and 7-dehydrocholesterol using coprostanol (m/z=370) as an internal standard and (−) adrenodoxin reductase as a control.

LXRβ = target: T4, LXRβ (Homo sapiens, UniProt P55055); details: cited from earlier work
T4 sequence (P55055 1-460): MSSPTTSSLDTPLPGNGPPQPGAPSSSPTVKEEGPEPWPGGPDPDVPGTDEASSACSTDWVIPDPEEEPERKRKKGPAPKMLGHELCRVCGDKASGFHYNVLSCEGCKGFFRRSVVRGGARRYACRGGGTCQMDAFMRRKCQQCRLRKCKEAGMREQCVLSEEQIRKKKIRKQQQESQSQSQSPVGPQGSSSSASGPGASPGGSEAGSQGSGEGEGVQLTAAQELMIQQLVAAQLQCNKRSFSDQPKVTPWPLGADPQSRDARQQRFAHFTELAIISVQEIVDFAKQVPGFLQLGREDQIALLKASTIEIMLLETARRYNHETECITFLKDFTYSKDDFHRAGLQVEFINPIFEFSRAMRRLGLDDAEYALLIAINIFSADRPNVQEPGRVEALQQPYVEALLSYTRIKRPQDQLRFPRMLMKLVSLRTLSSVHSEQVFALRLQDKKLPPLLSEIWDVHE

[3] = system: human retinal pigment epithelial cells (ARPE19); assay type: cell-based
Source text: We undertook to determine the effect of 27-hydroxylation of 7-ketocholesterol on the cytotoxic effect of 7-ketocholesterol. To test the general hypothesis that 27-hydroxylation of steroids markedly alters their biologic activity, the 27-hydroxy derivative of 7-ketocholesterol was synthesized from 27-hydrocholesterol using modifications of a previously published method (11). Its biologic effects on human retinal pigment epithelial cells (ARPE19) was compared to that of 7-ketocholesterol.
By contrast, retinal pigment epithelial cells maintained in the presence of 27-hydroxy-7-ketocholesterol had only a 10% reduction in viability compared to control.

[4] = Adrenodoxin reductase (−) control incubation, 20 min
[5] = Adrenodoxin reductase +, 20 min
[6] = disappearance of substrate at 20 min versus incubation without adrenodoxin reductase

T3 sequence (Q02318 34-531): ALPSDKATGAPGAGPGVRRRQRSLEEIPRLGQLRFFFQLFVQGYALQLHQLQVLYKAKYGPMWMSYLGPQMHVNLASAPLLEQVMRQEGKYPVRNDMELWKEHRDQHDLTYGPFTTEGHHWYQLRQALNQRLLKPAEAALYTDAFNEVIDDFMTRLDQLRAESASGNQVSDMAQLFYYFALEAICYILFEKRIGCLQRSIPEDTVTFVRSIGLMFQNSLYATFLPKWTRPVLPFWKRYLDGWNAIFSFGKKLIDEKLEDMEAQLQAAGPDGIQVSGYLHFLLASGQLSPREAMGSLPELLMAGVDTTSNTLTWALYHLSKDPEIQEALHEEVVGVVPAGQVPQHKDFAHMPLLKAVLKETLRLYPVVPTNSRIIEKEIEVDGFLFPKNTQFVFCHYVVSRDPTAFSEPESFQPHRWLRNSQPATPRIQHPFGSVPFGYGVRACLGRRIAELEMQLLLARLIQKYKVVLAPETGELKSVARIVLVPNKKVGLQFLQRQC

Row | Compound | Stimulation of ubiquitination of reductase (HMG CoA reductase) | Synthesis rate of the 27-diol metabolite ([1]; 0-2.5 min) [ng/min] | Synthesis rate of the 27-diol metabolite ([1]; 2.5-5.0 min) [ng/min] | Synthesis rate of the 27-diol metabolite ([1]; 5.0-10 min) [ng/min] | Total 27-diol metabolite [1] [ng/10 min] | other results
1 | CC(=CCCC(C)C1CCC2(C)C3=C(CCC12C)C1(C)CCC(O)C(C)(C)C1CC3)CO (centres unmarked) [27-hydroxylanosterol] | strongly stimulated reductase ubiquitination | – | – | – | – | Concentration giving approximately equivalent levels of reductase ubiquitination as 25 μM lanosterol (HMG CoA reductase): 2.5 µM
2 | C[C@H](CCCC(C)(C)O)[C@H]1CC[C@H]2[C@@H]3C(=O)C=C4C[C@@H](O)CC[C@]4(C)[C@H]3CC[C@]12C [7-keto-25-hydroxycholesterol] | stimulated ubiquitination of reductase | – | – | – | – | –
3 | CC(CO)CCC[C@@H](C)[C@H]1CC[C@H]2C3=CC=C4C[C@@H](O)CC[C@]4(C)[C@H]3CC[C@]12C (some centres unmarked) [27-hydroxy-7-dehydrocholesterol] | – | – | – | – | – | Expression of the nuclear receptor LXRα (LXRα): specifically upregulate
4 | CC(C)=CCC[C@@H](C)[C@H]1CC[C@@]2(C)C3=C(CC[C@]12C)[C@@]1(C)CC[C@H](O)C(C)(C)[C@@H]1CC3 [Lanosterol] | potently stimulate ubiquitination of reductase | – | – | – | – | Substrate for the enzyme CYP 27A1 [1]: substrates for the enzyme
5 | CC(C)CCC[C@@H](C)[C@H]1CC[C@H]2[C@@H]3CC=C4C[C@@H](O)CC[C@]4(C)[C@H]3CC[C@]12C [Cholesterol] | not | 80 | 75 | 53 | 534 | Percent metabolized ([2]; human, 20 min, 25 µM, pH 7.4): 22%
6 | CC(CO)CCC[C@@H](C)[C@H]1CC[C@H]2[C@@H]3CC=C4C[C@@H](O)CC[C@]4(C)[C@H]3CC[C@]12C (some centres unmarked) [27-hydroxycholesterol] | stimulated ubiquitination of reductase | – | – | – | – | Expression of the nuclear receptor LXRα (LXRα): upregulates; Expression of the nuclear receptor LXRβ (LXRβ): upregulates
7 | CC(C)=CCC[C@@H](C)[C@H]1CC[C@H]2C3=C(CC[C@]12C)[C@@]1(C)CC[C@H](O)C[C@@H]1CC3 [Zymosterol] | – | 9 | 14 | 10 | 97 | Substrate for the enzyme CYP 27A1 [1]: substrates for the enzyme
8 | CC(C)CCC[C@@H](C)[C@H]1CC[C@H]2C3=CC=C4C[C@@H](O)CC[C@]4(C)[C@H]3CC[C@]12C [7-Dehydrocholesterol] | – | 24 | 54 | 11 | 107 | Sterol/int std ratio [2, 4]: 0.95; Sterol/int std ratio [2, 5]: 0.65; Percent metabolized [2, 6]: 32%
9 | CC(C)CCC[C@@H](C)[C@H]1CC[C@H]2[C@@H]3C(=O)C=C4C[C@@H](O)CC[C@]4(C)[C@H]3CC[C@]12C [7-ketocholesterol] | – | – | – | – | – | Viability of retinal pigment epithelial cells ([3]; 25 μmolar): 68%; Viability of retinal pigment epithelial cells ([3]; 50 μmolar): 20%
10 | C[C@H](CCCC(C)(C)O)[C@H]1CC[C@H]2[C@@H]3CC=C4C[C@@H](O)CC[C@]4(C)[C@H]3CC[C@]12C [25-hydroxycholesterol] | stimulated ubiquitination of reductase | – | – | – | – | –
11 | CC(C)=CCC[C@@H](C)[C@H]1CC[C@H]2[C@@H]3CC=C4C[C@@H](O)CC[C@]4(C)[C@H]3CC[C@]12C [Desmosterol] | – | 3 | 8 | 9 | 85 | Substrate for the enzyme CYP 27A1 [1]: substrates for the enzyme; Sterol/int std ratio [2, 4]: 0.12; Sterol/int std ratio [2, 5]: 0.09; Percent metabolized [2, 6]: 25%
